Experimental data as given in article PMC10895652, “Preclinical Evaluation of Novel Positron Emission Tomography (PET) Probes for Imaging Leucine-Rich Repeat Kinase 2 (LRRK2)” (Journal of Medicinal Chemistry, 2024).

Assays:
LRRK2 = molecular target: T1, LRRK2 (Rattus norvegicus, UniProt F1LNJ1); assay: In vitro autoradiography in rat brain sections; assay type: binding
T1 construct: from tissue; host or cells: rat brain (Sprague-Dawley rats)
Method: The general procedure for autoradiography studies was described previously with minor revision in this work.[36],[40] Brain sections from rats were preincubated with Tris-HCl buffer (50 mM), MgCl2 (1.2 mM) and CaCl2 (2 mM) solution for 20 min at ambient temperature, followed by incubation with [^11C]3 and [^18F]4 (0.48 nM). […] After incubation, brain sections were rinsed with ice-cold buffer 3 times for 2 min and dipped in cold distilled water for 10 s. The brain sections were dried with cold air and then placed on imaging plates (BAS-MS2025, GE Healthcare, NJ) for optimized contact periods. Autoradiograms were obtained and regions of interest (ROIs) were carefully drawn with the reference of naked-eye observation. Radioactivity was measured using an Amersham Typhoon 5 analyzer system and expressed as photostimulated luminescence values per unit area (PSL/mm^2) or normalized to % of radioactivity vs control.

LRRK2-G2019S = assay: PET imaging in LRRK2-G2019S mutant versus wild-type mice; assay type: in vivo, mouse; conditions: brain, G2019S mice versus WT mice, p ≤ 0.001
Method: The general procedure for PET studies was described previously[35],[41] with minor modification in this work. Briefly, PET scans were carried out by a Genisys 4 PET scanner (Sofie Biosciences, Culver, CA). Mice were kept under anesthesia using 1–2% (v/v) isoflurane during the scan. The radiotracer (ca. 45 μCi/100 μL) was injected into the tail vein via a preinstalled catheter. A dynamic scan in 3D list mode was acquired for 60 min. The PET dynamic images were reconstructed using G4 software (Analysis Tools and System Setup/Diagnostics Tool, Sofie Biosciences). The radioactivity was decay-corrected and expressed as the standardized uptake value: SUV = (radioactivity per mL tissue/injected radioactivity) × body weight.

T1 sequence (F1LNJ1 1-2526): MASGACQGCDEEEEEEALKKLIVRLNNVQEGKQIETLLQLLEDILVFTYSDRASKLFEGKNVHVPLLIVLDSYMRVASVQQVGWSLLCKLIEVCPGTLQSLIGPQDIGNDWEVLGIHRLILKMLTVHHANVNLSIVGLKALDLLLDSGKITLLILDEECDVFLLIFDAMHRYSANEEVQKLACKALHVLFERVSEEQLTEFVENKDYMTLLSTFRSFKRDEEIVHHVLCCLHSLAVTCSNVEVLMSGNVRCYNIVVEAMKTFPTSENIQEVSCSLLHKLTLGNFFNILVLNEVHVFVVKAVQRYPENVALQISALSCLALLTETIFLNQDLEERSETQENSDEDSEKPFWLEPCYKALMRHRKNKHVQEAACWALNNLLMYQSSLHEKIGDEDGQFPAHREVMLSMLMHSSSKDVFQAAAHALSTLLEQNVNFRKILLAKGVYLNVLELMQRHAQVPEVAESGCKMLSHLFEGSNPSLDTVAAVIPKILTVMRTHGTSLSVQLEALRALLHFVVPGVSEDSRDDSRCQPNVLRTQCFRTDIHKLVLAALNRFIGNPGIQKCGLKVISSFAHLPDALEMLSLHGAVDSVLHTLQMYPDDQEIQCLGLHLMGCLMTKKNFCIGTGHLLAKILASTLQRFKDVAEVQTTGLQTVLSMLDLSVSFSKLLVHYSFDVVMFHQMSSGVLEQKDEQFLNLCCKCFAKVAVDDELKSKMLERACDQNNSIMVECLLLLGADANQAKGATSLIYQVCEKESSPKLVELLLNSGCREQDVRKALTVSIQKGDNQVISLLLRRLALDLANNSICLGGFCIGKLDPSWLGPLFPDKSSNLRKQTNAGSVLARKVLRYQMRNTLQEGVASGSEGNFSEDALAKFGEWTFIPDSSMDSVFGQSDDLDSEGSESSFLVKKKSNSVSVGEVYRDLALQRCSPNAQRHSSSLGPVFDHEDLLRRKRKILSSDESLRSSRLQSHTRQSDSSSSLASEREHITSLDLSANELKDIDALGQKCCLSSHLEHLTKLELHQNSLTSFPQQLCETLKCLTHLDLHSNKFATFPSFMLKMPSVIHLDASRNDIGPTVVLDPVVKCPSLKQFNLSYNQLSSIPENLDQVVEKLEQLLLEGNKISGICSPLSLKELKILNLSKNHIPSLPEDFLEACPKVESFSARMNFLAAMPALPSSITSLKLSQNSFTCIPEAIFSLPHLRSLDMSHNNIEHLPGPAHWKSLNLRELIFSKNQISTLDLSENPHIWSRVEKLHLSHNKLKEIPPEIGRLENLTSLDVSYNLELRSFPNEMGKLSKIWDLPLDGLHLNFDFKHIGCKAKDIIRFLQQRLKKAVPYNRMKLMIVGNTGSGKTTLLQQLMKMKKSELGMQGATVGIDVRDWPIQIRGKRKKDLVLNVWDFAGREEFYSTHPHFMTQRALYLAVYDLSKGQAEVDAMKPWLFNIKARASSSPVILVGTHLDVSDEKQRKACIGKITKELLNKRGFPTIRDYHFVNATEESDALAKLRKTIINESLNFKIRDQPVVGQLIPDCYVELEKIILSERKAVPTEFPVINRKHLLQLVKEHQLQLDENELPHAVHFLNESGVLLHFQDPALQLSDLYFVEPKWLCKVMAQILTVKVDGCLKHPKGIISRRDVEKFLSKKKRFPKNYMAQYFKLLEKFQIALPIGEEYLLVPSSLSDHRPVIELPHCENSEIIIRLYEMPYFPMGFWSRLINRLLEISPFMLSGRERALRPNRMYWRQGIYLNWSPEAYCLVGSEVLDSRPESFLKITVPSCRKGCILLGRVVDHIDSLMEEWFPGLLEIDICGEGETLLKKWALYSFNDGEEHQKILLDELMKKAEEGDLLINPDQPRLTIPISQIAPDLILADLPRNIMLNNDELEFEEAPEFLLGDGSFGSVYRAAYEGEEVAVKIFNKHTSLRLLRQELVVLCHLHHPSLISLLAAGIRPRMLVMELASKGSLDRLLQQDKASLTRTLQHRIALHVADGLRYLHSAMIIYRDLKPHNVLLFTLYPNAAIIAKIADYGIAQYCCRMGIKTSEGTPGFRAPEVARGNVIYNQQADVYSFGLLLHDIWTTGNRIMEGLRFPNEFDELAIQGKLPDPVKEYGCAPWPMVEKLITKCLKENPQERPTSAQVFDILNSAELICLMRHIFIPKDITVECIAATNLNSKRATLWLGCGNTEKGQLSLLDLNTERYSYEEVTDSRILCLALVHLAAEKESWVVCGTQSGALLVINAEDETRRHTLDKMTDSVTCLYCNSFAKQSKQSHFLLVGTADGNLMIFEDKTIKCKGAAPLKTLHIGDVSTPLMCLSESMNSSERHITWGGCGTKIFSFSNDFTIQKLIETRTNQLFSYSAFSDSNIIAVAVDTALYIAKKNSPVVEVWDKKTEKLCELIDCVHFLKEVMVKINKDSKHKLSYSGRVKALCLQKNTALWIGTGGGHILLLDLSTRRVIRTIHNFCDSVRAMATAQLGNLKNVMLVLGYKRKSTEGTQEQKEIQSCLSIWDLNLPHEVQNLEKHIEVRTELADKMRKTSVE

Question: With `N#Cc1cccc(-c2c[nH]c3ncnc(N4CCOCC4)c23)c1[18F]` [[^18F]4] as the compound, how does the “radioactivity levels under blocking with GNE-0877” value (LRRK2; LRRK2-deficient brain regions (cerebellum and midbrain)) read?
Answer: no obvious blocking results

Question: And the “radioactivity levels under blocking with GNE-0877” value (LRRK2; LRRK2-rich brain regions (hippocampus, cerebral cortex, striatum, thalamus))?
Answer: significantly reduced

Question: What about the “increase of radioactivity accumulation based on AUC” value (LRRK2-G2019S) of the same compound?
Answer: around 22%
